No end group written: not given here.
Columns and labels:
[1] = system: MDA-MB-231 cells of breast cancer; assay: transwell migration test; assay type: cell-based, human; details: 24 h
Description: Inoculate SCC4 cells of head and neck cancer, SW579 cells of thyroid cancer, A549 cells of lung cancer, TE13 cells of esophageal squamous cell carcinoma, MGC803 cells of stomach cancer, MDA-MB-231 cells of breast cancer, UOK262 cells of kidney cancer, and A431 cells of skin cancer of human to transwell cells, 100 μL per well, and meanwhile add micropeptides HMMW I to IX at different doses to every cell. Add 0.6 mL of complete medium containing 10% FBS to the transwell cells to stimulate cell migration, and culture in 5% CO2 at 37 DEG C. for 24 h. Discard the medium in the wells, fix with 90% alcohol at room temperature for 30 min, stain with 0.1% crystal violet at room temperature for 10 min, rinse with clear water, gently wipe off the non-migrated cells in the upper layer with a cotton swab, observe under a microscope and select four fields of view to take pictures and count. Calculate the migration inhibition rate (MIR) of the cells according to the following formula: […]
The test was repeated independently three times. Mean±SD was calculated based on the test results. Statistical t test was done. Here, “the test was repeated independently three times” means that every dose of any type of cells was tested repeatedly three times, and then the above formula was used to calculate the number of migrated cells (Mean±SD). Value P was used to express statistical difference. The statistical significance of the results is a method for estimating how true the results are (the totality can be represented), *P<0.05 means significant difference, and **P<0.01 means very significant difference.

[2] = system: A431 cells of skin cancer; assay type: in vivo, BALB/c nude mice; details: for in vivo tumor growth inhibition rate: mouse, 15 mg/kg
Description: (§1) • (1) Massively culture SCC4 cells of head and neck cancer, SW579 cells of thyroid cancer, A549 cells of lung cancer, TE13 cells of esophageal squamous cell carcinoma, MGC803 cells of stomach cancer, MDA-MB-231 cells of breast cancer, UOK262 cells of kidney cancer, and A431 cells of skin cancer of human, digest with a 0.25% pancreatin solution, centrifuge the cell suspension at 1,000 rpm for 5 min after termination of digestion, re-suspend the cells by serum-free DMEM culture medium, then count the cells and adjust cell concentration to 5×10^7 cells/ml; • (2) Inoculate each nude mouse (female mice at the age of 4-6 weeks and with a weight of 14-16 g were ordered and adaptively reared for 1 week in an SPF animal breeding room) with 100 μl of the cell suspension of the corresponding group in the left armpit, and the number of cells injected is 5×10^6; • (3) After inoculation, the tumor growth at the inoculation sites of nude mice was closely observed. On the 7th day after inoculation, white scabs appeared at the inoculation sites, which could move subcutaneously after being touched. With the growth of tumor tissue, hard tumor masses were gradually formed at the inoculation sites. On about the 14th day, the average volume of the tumor tissue reached 100 mm^3. BALB/c nude mice were randomly divided into three groups (the normal saline group was a blank control group, the micropeptide HMMW at a dose of 10 mg/kg was a low-dose group, and the micropeptide HMMW at a dose of 15 mg/kg was a high-dose group), 6 mice in each group, and the animals weighed 16-18 g at the beginning of administration; • (4) The volume of the transplanted tumor was measured and recorded every two days. The calculation formula of tumor volume (TV) is shown below: TV=0.5×a×b^2 • where, a is the length of the transplanted tumor (mm), and b is the width of the transplanted tumor (mm). • (1) Massively culture SCC4 cells of head and neck cancer, SW579 cells of thyroid cancer, A549 cells of lung cancer, TE13 cells of esophageal squamous cell carcinoma, MGC803 cells of stomach cancer, MDA-MB-231 cells of breast cancer, UOK262 cells of kidney cancer, and A431 cells of skin cancer of human, digest with a 0.25% pancreatin solution, centrifuge the cell suspension at 1,000 rpm for 5 min after termination of digestion, re-suspend the cells by serum-free DMEM culture medium, then count the cells and adjust cell concentration to 5×10^7 cells/ml; • (2) Inoculate each nude mouse (female mice at the age of 4-6 weeks and with a weight of 14-16 g were ordered and adaptively reared for 1 week in an SPF animal breeding room) with 100 μl of the cell suspension of the corresponding group in the left armpit, and the number of cells injected is 5×10^6; • (3) After inoculation, the tumor growth at the inoculation sites of nude mice was closely observed. On the 7th day after inoculation, white scabs appeared at the inoculation sites, which could move subcutaneously after being touched. With the growth of tumor tissue, hard tumor masses were gradually formed at the inoculation sites. On about the 14th day, the average volume of the tumor tissue reached 100 mm^3. BALB/c nude mice were randomly divided into three groups (the normal saline group was a blank control group, and each of micropeptides HMMW I to IX formed a group at a dose of 15 mg/kg), 6 mice in each group, and the animals weighed 16-18 g at the beginning of administration; • (4) The volume of the transplanted tumor was measured and recorded every two days. The calculation formula of tumor volume (TV) is shown below: TV=0.5×a×b^2 • where, a is the length of the transplanted tumor (mm), and b is the width of the transplanted tumor (mm).

[3] = system: SW579 cells of thyroid cancer; assay type: in vivo, BALB/c nude mice; details: for in vivo tumor growth inhibition rate: mouse, 15 mg/kg
Description: as §1

[4] = system: TE13 cells of esophageal squamous cell carcinoma; assay type: in vivo, BALB/c nude mice; details: for in vivo tumor growth inhibition rate: mouse, 15 mg/kg
Description: as §1

[5] = system: A549 cells of lung cancer; assay type: in vivo, BALB/c nude mice; details: for in vivo tumor growth inhibition rate: mouse, 15 mg/kg
Description: as §1

[6] = system: MGC803 cells of stomach cancer; assay type: in vivo, BALB/c nude mice; details: for in vivo tumor growth inhibition rate: mouse, 15 mg/kg
Description: as §1

[7] = system: MDA-MB-231 cells of breast cancer; assay type: in vivo, BALB/c nude mice; details: for in vivo tumor growth inhibition rate: mouse, 15 mg/kg
Description: as §1

[8] = system: SCC4 cells of head and neck cancer; assay type: in vivo, BALB/c nude mice; details: for in vivo tumor growth inhibition rate: mouse, 15 mg/kg
Description: as §1

[9] = system: UOK262 cells of kidney cancer; assay type: in vivo, BALB/c nude mice; details: for in vivo tumor growth inhibition rate: mouse, 15 mg/kg
Description: as §1

Substance | migration inhibition rate ([1]; dose 1 μM) | migration inhibition rate ([1]; dose 4 μM) | migration inhibition rate ([1]; dose 16 μM) | in vivo tumor growth inhibition rate [2] | in vivo tumor growth inhibition rate [3] | in vivo tumor growth inhibition rate [4] | in vivo tumor growth inhibition rate [5] | in vivo tumor growth inhibition rate [6] | in vivo tumor growth inhibition rate [7] | in vivo tumor growth inhibition rate [8] | in vivo tumor growth inhibition rate [9] | inhibition of tumorigenicity in vivo ([2]; A431, nude mice, 10 and 15 mg/kg, vs normal saline, dose-dependent (Embodiment 6)) | inhibition of tumorigenicity in vivo ([3]; SW579, nude mice, 10 and 15 mg/kg, vs normal saline, dose-dependent (Embodiment 6)) | inhibition of tumorigenicity in vivo ([4]; TE13, nude mice, 10 and 15 mg/kg, vs normal saline, dose-dependent (Embodiment 6)) | inhibition of tumorigenicity in vivo ([5]; A549, nude mice, 10 and 15 mg/kg, vs normal saline, dose-dependent (Embodiment 6)) | inhibition of tumorigenicity in vivo ([6]; MGC803, nude mice, 10 and 15 mg/kg, vs normal saline, dose-dependent (Embodiment 6)) | inhibition of tumorigenicity in vivo ([7]; MDA-MB-231, nude mice, 10 and 15 mg/kg, vs normal saline, dose-dependent (Embodiment 6)) | inhibition of tumorigenicity in vivo ([8]; SCC4, nude mice, 10 and 15 mg/kg, vs normal saline, dose-dependent (Embodiment 6)) | inhibition of tumorigenicity in vivo ([9]; UOK262, nude mice, 10 and 15 mg/kg, vs normal saline, dose-dependent (Embodiment 6))
MGRAGVPGFSPRRSSVEAKMQSTSCSVRKSSTVTAWPAVVLLLSWGQRRGG-OH [HMMW-IX] | 26.06% | 52.34% | 73.38% | 64.33% | 67.89% | 65.31% | 69.09% | 68.61% | 69.36% | 71.84% | 65.23% | – | – | – | – | – | – | – | –
MGSTGVPGFSPRRSSVEAKMQSTSCSVRKSSTVTAWPAVVLLLSWGQRRGG-OH [HMMW-VII] | 28.27% | 50.14% | 72.15% | 67.70% | 68.63% | 71.23% | 69.13% | 65.11% | 68.91% | 72.75% | 64.37% | – | – | – | – | – | – | – | –
MGSTYNPGFSPRRSSVEAKMQSTSCSVRKSSTVTAWPAVVLLLSWGQRRGG-OH [HMMW-V] | 28.07% | 50.24% | 74.18% | 69.41% | 70.78% | 63.46% | 71.12% | 71.04% | 67.75% | 67.14% | 64.16% | – | – | – | – | – | – | – | –
MERAGVPGFSPRRSSVEAKMQSTSCSVRKSSTVTAWPAVVLLLHTSKDDEE-OH [HMMW-II] | 27.07% | 51.24% | 73.18% | 71.22% | 64.76% | 62.86% | 71.32% | 70.08% | 68.95% | 66.24% | 63.12% | – | – | – | – | – | – | – | –
MERAGVPGFSPRRSSVEAKMQSTSCSVRKSSTVTAWPAVVLLLSWGQRRGG-OH [HMMW-I] | 28.06% | 50.34% | 75.38% | 62.74% | 66.63% | 65.43% | 69.23% | 68.12% | 67.97% | 72.56% | 63.80% | significantly inhibit | significantly inhibit | significantly inhibit | significantly inhibit | significantly inhibit | significantly inhibit | significantly inhibit | significantly inhibit
MGSTYNKRHSPRRSSVEAKMQSTSCSVRKSSTVTAWPAVVLLLSWGQRRGG-OH [HMMW-III] | 27.06% | 51.34% | 74.38% | 69.54% | 71.89% | 66.31% | 73.08% | 69.62% | 69.49% | 70.84% | 61.67% | – | – | – | – | – | – | – | –
MERAGVPGFSPRRSSVEAKMQSTSCSVRKSSTVTAWPAVVLLLSWGQRDEE-OH [HMMW-VI] | 27.06% | 50.34% | 74.38% | 68.25% | 66.79% | 65.56% | 65.27% | 66.51% | 71.18% | 73.54% | 65.19% | – | – | – | – | – | – | – | –
